# According to patent publication US10570184B2, “GLP-1/glucagon receptor co-agonists for medical use” (Novo Nordisk A/S, priority 2014, dated 2020):
# Starred links: 1 amine or outer side, 2 acyl side, 3 side chain; linkers in the order of their positions; H or OH if unused. Non-standard residues stand in square brackets, D forms with d. Residues, ends and D or L forms follow the SMILES beside them. Groups on a side chain read outwards from the residue. *: point of attachment. C18 diacid = O=C(O)CCCCCCCCCCCCCCCCC(=O)*; γGlu = O=C(O)[C@H](CCC(=O)[*:2])N[*:1]; Ac4c = NC1(C(=O)O)CCC1; AEEA = NCCOCCOCC(=O)O; Aib = CC(C)(N)C(=O)O
# Test: Assay (III) ThT fibrillation assay for physical stability
# Type: physicochemical
# Settings: 250 μM in 10 mM HEPES buffer, 37° C., shaking 960 rpm
# Summary of the method: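 Glucagon derivative at 250 μM in 10 mM HEPES pH 7.5 with 1 μM ThT was incubated at 37 °C under 960 rpm orbital shaking. Fluorescence (ex 444/em 485 nm) was read every 20 min and fitted for lag time (t0−2τ) and kapp (1/τ). Recovery was soluble peptide after centrifugation/filtration, by RP-HPLC, as percent of initial.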
row,SMILES,"ThT Assay Lag time (h) [Assay (III), pH 7.5] [h]"
1,"CC[C@H](C)[C@H](NC(=O)[C@H](CC(C)C)NC(=O)[C@H](Cc1c[nH]c2ccccc12)NC(=O)[C@H](C)NC(=O)[C@@H](NC(=O)[C@H](Cc1ccccc1)NC(=O)[C@H](CC(=O)O)NC(=O)[C@H](CCCNC(=N)N)NC(=O)[C@H](C)NC(=O)[C@H](CCCNC(=N)N)NC(=O)[C@H](CCCNC(=N)N)NC(=O)[C@H](CC(C)C)NC(=O)[C@H](CC(=O)O)NC(=O)[C@H](CC(C)C)NC(=O)[C@H](Cc1ccc(O)cc1)NC(=O)[C@H](CCCCN)NC(=O)[C@H](CO)NC(=O)[C@H](CC(C)C)NC(=O)[C@H](CC(=O)O)NC(=O)[C@H](CO)NC(=O)[C@@H](NC(=O)[C@H](Cc1ccccc1)NC(=O)[C@@H](NC(=O)CNC(=O)[C@H](CCC(N)=O)NC(=O)C(C)(C)NC(=O)[C@@H](N)Cc1c[nH]cn1)[C@@H](C)O)[C@@H](C)O)C(C)C)C(=O)N[C@@H](CC(N)=O)C(=O)N[C@@H](CCCCNC(=O)CC[C@H](NC(=O)CC[C@H](NC(=O)COCCOCCNC(=O)COCCOCCNC(=O)CC[C@H](NC(=O)CCCCCCCCCCCCCCCCC(=O)O)C(=O)O)C(=O)O)C(=O)O)C(N)=O [Chem. 24, N^ε29-[(4S)-4-carboxy-4-[[(4S)-4-carboxy-4-[[2-[2-[2-[[2-[2-[2-[[(4S)-4-carboxy-4-(17-carboxyheptadecanoylamino)butanoyl]amino]ethoxy]ethoxy]acetyl]amino]ethoxy]ethoxy]acetyl]amino]butanoyl]amino]butanoyl]-[Aib2,Leu10,Leu16,Arg20,Ala24,Ile27,Lys29]-Glucagon amide] (H-H[Aib]QGTFTSDLSKYLDLRRARDFVAWLINK([γGlu-γGlu-AEEA-AEEA-γGlu-C18 diacid])-NH2; N-terminus assumed)",45.0
2,"CC[C@H](C)[C@H](NC(=O)[C@H](CC(C)C)NC(=O)[C@H](Cc1c[nH]c2ccccc12)NC(=O)[C@H](CCC(N)=O)NC(=O)[C@@H](NC(=O)[C@H](Cc1ccccc1)NC(=O)[C@H](CCC(=O)O)NC(=O)[C@H](CCCNC(=N)N)NC(=O)[C@H](C)NC(=O)[C@H](CCCNC(=N)N)NC(=O)[C@H](CCCNC(=N)N)NC(=O)[C@H](C)NC(=O)[C@H](CC(=O)O)NC(=O)[C@H](CC(C)C)NC(=O)[C@H](Cc1ccc(O)cc1)NC(=O)[C@H](CCCCN)NC(=O)[C@H](CO)NC(=O)[C@H](CC(C)C)NC(=O)[C@H](CC(=O)O)NC(=O)[C@H](CO)NC(=O)[C@@H](NC(=O)[C@H](Cc1ccccc1)NC(=O)[C@@H](NC(=O)CNC(=O)[C@H](CCC(N)=O)NC(=O)C(C)(C)NC(=O)[C@@H](N)Cc1c[nH]cn1)[C@@H](C)O)[C@@H](C)O)C(C)C)C(=O)N[C@@H](CO)C(=O)N[C@@H](CCCCNC(=O)CC[C@H](NC(=O)CC[C@H](NC(=O)COCCOCCNC(=O)COCCOCCNC(=O)CC[C@H](NC(=O)CCCCCCCCCCCCCCCCC(=O)O)C(=O)O)C(=O)O)C(=O)O)C(N)=O [Chem. 28, N^ε29-[(4S)-4-carboxy-4-[[(4S)-4-carboxy-4-[[2-[2-[2-[[2-[2-[2-[[(4S)-4-carboxy-4-(17-carboxyheptadecanoylamino)butanoyl]amino]ethoxy]ethoxy]acetyl]amino]ethoxy]ethoxy]acetyl]amino]butanoyl]amino]butanoyl]-[Aib2,Leu10,Ala16,Arg20,Glu21,Ile27,Ser28,Lys29]-Glucagon amide] (H-H[Aib]QGTFTSDLSKYLDARRAREFVQWLISK([γGlu-γGlu-AEEA-AEEA-γGlu-C18 diacid])-NH2; N-terminus assumed)",45.0
3,"CC[C@H](C)[C@H](NC(=O)[C@H](CC(C)C)NC(=O)[C@H](Cc1c[nH]c2ccccc12)NC(=O)[C@H](CCC(N)=O)NC(=O)[C@@H](NC(=O)[C@H](Cc1ccccc1)NC(=O)[C@H](CC(=O)O)NC(=O)[C@H](CCCNC(=N)N)NC(=O)[C@H](C)NC(=O)[C@H](CCCNC(=N)N)NC(=O)[C@H](CCCNC(=N)N)NC(=O)[C@H](CO)NC(=O)[C@H](CCC(=O)O)NC(=O)[C@H](CC(C)C)NC(=O)[C@H](Cc1ccc(O)cc1)NC(=O)[C@H](CCCNC(=N)N)NC(=O)[C@H](CO)NC(=O)[C@H](Cc1ccc(O)cc1)NC(=O)[C@H](CC(=O)O)NC(=O)[C@H](CO)NC(=O)[C@@H](NC(=O)[C@H](Cc1ccccc1)NC(=O)[C@@H](NC(=O)CNC(=O)[C@H](CCC(N)=O)NC(=O)C(C)(C)NC(=O)[C@@H](N)Cc1c[nH]cn1)[C@@H](C)O)[C@@H](C)O)C(C)C)C(=O)N[C@@H](CCCCNC(=O)CC[C@H](NC(=O)COCCOCCNC(=O)CC[C@H](NC(=O)COCCOCCNC(=O)CC[C@H](NC(=O)COCCOCCNC(=O)CC[C@H](NC(=O)CC[C@H](NC(=O)CCCCCCCCCCCCCCCCC(=O)O)C(=O)O)C(=O)O)C(=O)O)C(=O)O)C(=O)O)C(=O)N[C@H](C(N)=O)[C@@H](C)O [Chem. 37, N^28-[(4S)-4-carboxy-4-[[2-[2-[2-[[(4S)-4-carboxy-4-[[2-[2-[2-[[(4S)-4-carboxy-4-[[2-[2-[2-[[(4S)-4-carboxy-4-[[(4S)-4-carboxy-4-(17-carboxyheptadecanoylamino)butanoyl]amino]butanoyl]amino]ethoxy]ethoxy]acetyl]amino]butanoyl]amino]ethoxy]ethoxy]acetyl]amino]butanoyl]amino]ethoxy]ethoxy]acetyl]amino]butanoyl]-[Aib2,Arg12,Glu15,Arg20,Ile27,Lys28]-Glucagon amide] (H-H[Aib]QGTFTSDYSRYLESRRARDFVQWLIK([γGlu-AEEA-γGlu-AEEA-γGlu-AEEA-γGlu-γGlu-C18 diacid])T-NH2; N-terminus assumed)",6.3

# More lines, now with the values ahead:
row,"ThT Assay Lag time (h) [Assay (III), pH 7.5] [h]",SMILES
1,16.0,"CC[C@H](C)[C@H](NC(=O)[C@H](CC(C)C)NC(=O)[C@H](Cc1c[nH]c2ccccc12)NC(=O)[C@H](CCC(N)=O)NC(=O)[C@@H](NC(=O)[C@H](Cc1ccccc1)NC(=O)[C@H](CCC(=O)O)NC(=O)[C@H](CCCNC(=N)N)NC(=O)[C@H](C)NC(=O)[C@H](CCCNC(=N)N)NC(=O)[C@H](CCCNC(=N)N)NC(=O)[C@H](CO)NC(=O)[C@H](CCC(=O)O)NC(=O)[C@H](CC(C)C)NC(=O)[C@H](Cc1ccc(O)cc1)NC(=O)[C@H](CCCCN)NC(=O)[C@H](CO)NC(=O)[C@H](CC(C)C)NC(=O)[C@H](CC(=O)O)NC(=O)[C@H](CO)NC(=O)[C@@H](NC(=O)[C@H](Cc1ccccc1)NC(=O)[C@@H](NC(=O)CNC(=O)[C@H](CCC(N)=O)NC(=O)C1(NC(=O)[C@@H](N)Cc2c[nH]cn2)CCC1)[C@@H](C)O)[C@@H](C)O)C(C)C)C(=O)N[C@@H](CCCCNC(=O)CNC(=O)[C@H](CO)NC(=O)[C@H](CCC(=O)O)NC(=O)CNC(=O)[C@H](CO)NC(=O)CC[C@H](NC(=O)CC[C@H](NC(=O)CCCCCCCCCCCCCCCCC(=O)O)C(=O)O)C(=O)O)C(=O)N[C@H](C(N)=O)[C@@H](C)O [Chem. 16, N^ε28-[2-[[(2S)-2-[[(2S)-4-carboxy-2-[[2-[[(2S)-2-[[(4S)-4-carboxy-4-[[(4S)-4-carboxy-4-(17-carboxyheptadecanoylamino)butanoyl]amino]butanoyl]amino]-3-hydroxypropanoyl]amino]acetyl]amino]butanoyl]amino]-3-hydroxypropanoyl]amino]acetyl]-[Acb2,Leu10,Glu15,Arg20,Glu21,Ile27,Lys28]-Glucagon amide] (HELM PEPTIDE1{H.[O=C(C1(N[*:1])CCC1)[*:2]].Q.G.T.F.T.S.D.L.S.K.Y.L.E.S.R.R.A.R.E.F.V.Q.W.L.I.K.T.[am]}|PEPTIDE2{[O=C(O)CCCCCCCCCCCCCCCCC(=O)[*:2]].[gGlu].[gGlu].S.G.E.S.G}$PEPTIDE1,PEPTIDE2,28:R3-8:R2$$$V2.0)"
2,12.3,"CC[C@H](C)[C@H](NC(=O)[C@H](CC(C)C)NC(=O)[C@H](Cc1c[nH]c2ccccc12)NC(=O)[C@H](CCC(N)=O)NC(=O)[C@@H](NC(=O)[C@H](Cc1ccccc1)NC(=O)[C@H](CCC(=O)O)NC(=O)[C@H](CCCNC(=N)N)NC(=O)[C@H](C)NC(=O)[C@H](CCCNC(=N)N)NC(=O)[C@H](CCCNC(=N)N)NC(=O)[C@H](CO)NC(=O)[C@H](CCC(=O)O)NC(=O)[C@H](CC(C)C)NC(=O)[C@H](Cc1ccc(O)cc1)NC(=O)[C@H](CCCNC(=N)N)NC(=O)[C@H](CO)NC(=O)[C@H](CC(C)C)NC(=O)[C@H](CC(=O)O)NC(=O)[C@H](CO)NC(=O)[C@@H](NC(=O)[C@H](Cc1ccccc1)NC(=O)[C@@H](NC(=O)CNC(=O)[C@H](CCC(N)=O)NC(=O)C1(NC(=O)[C@@H](N)Cc2c[nH]cn2)CCC1)[C@@H](C)O)[C@@H](C)O)C(C)C)C(=O)N[C@@H](CCCCNC(=O)CC[C@H](NC(=O)CC[C@H](NC(=O)COCCOCCNC(=O)COCCOCCNC(=O)CC[C@H](NC(=O)CC[C@H](NC(=O)CCCCCCCCCCCCCCCCC(=O)O)C(=O)O)C(=O)O)C(=O)O)C(=O)O)C(=O)N[C@H](C(N)=O)[C@@H](C)O [Chem. 17, N^ε28-[(4S)-4-carboxy-4-[[(4S)-4-carboxy-4-[[2-[2 [2-[[2-[2-[2-[[(4S)-4-carboxy-4-[[(4S)-4-carboxy-4-(17-carboxyheptadecanoylamino)butanoyl]amino]butanoyl]amino]ethoxy]ethoxy]acetyl]amino]ethoxy]ethoxy]acetyl]amino]butanoyl]amino]butanoyl]-[Acb2,Leu10,Arg12,Glu15,Arg20,Glu21,Ile27,Lys28]-Glucagon amide] (H-H[Ac4c]QGTFTSDLSRYLESRRAREFVQWLIK([γGlu-γGlu-AEEA-AEEA-γGlu-γGlu-C18 diacid])T-NH2)"
